Results taken from patent publication US20240383870A1, “HETEROCYCLIC ALDEHYDE TRAPPING COMPOUNDS AND USES THEREOF” (Aldeyra Therapeutics, Inc., priority 2021, published 2024).

Assays:
Type in all cases: in vivo
M-CSF (CSF1) = test: Acute LPS-induced sepsis in C57BL/6 mice: M-CSF (CSF1) cytokine detection assay; settings: LPS-challenged mice, plasma at 6.5 h, unpaired t-test vs vehicle
Text: FIG. 24 is a graph showing the results of an M-CSF (CSF1) cytokine detection assay in samples collected from mouse subjects after administration of compounds of the present disclosure. M-CSF causes hematopoietic stem cells to differentiate into macrophages.
(§1) The primary objective of this study was to collect plasma samples of lipopolysaccharide (LPS) challenged C57BL/6 mice after dose of test compounds to provide a cytokine profile as impacted by prophylactic treatments. This study models acute sepsis, which is a systemic inflammatory syndrome initiated by Gram-negative and Gram-positive bacteria and fungi which infect the lungs, abdomen, bloodstream, and renal or genitourinary tracts. Sepsis patients ultimately die of multiorgan failure which is caused by extensive tissue hypo-oxygenation due to ongoing microvascular leakage, disseminated intravascular coagulation, compromised energy production, and metabolic alterations. Sepsis is characterized by an early systemic inflammatory response phase featuring symptoms, such as tachycardia, fever, hyperventilation, and activation of the complement and coagulation cascades. However, it is now appreciated that a compensatory anti-inflammatory response phase follows, characterized by neuroendocrine-mediated immunosuppression. Since these processes are the result of interaction between cells of inflammation and organs, investigation of the treatment of this syndrome requires the use of intact animal models. The use of ten mice per group allows useful statistical modelling of the results.
(§2) For the data shown in Table 2A, 103 mice (female, 18-22 gram, C57BL/6) were purchased from ENVIGO. The mice were housed in 20 cages of 5 mice per cage with 1 cage of 3 mice as extra. The cages had filter tops and autoclaved bedding, and the animals were placed in quarantine with daily inspection. The treatment groups are detailed in Table 2A below. 10 mice were included in each group. The mice were dosed by oral gavage (PO) at 10 ml/kg as per the table below. MC=methyl cellulose.
as §2, with “2B, 185” for “2A, 103”, “37” for “20”, “cage.” for “cage with 1 cage of 3 mice as extra.”, “2B” for “2A”, “(P0)” for “(PO)”
(§3) At T=0 h, the mice were dosed with one of the test compounds as described in the above table.
(§4) At T=0.5 h, the mice were injected IP with 1.5 mg/kg […] (Sigma).
(§5) At T=6.5 h, all mice were anesthetized and exsanguinated into pre-chilled EDTA-treated tubes. The blood was processed to plasma which was stored in labeled 0.5 polypropylene snap-cap tubes (0.5 mL Eppendorf Safe-Lock Tubes (Fisher Scientific) at −80° C.
(§6) Preparation of vehicle: 1.0 gram of methyl cellulose (Sigma) was dissolved in 200 mL of water (USP purified) to make a solution of 0.5% methyl cellulose in water. Preparation of LPS solution: 6 mg of LPS (from Escherichia Coli 055:B5, Cat #L2880, Sigma Lot #057m4013) was dissolved in 20 ml of saline to give a LPS solution of 0.3 mg/ml. All mice were injected with 5 ml/kg (1.5 mg/kg) at the scheduled time by intraperitoneal injection.
(§7) A 32-plex cytokine panel was obtained from Eve Technologies. Each cytokine was assessed based against a 7 point curve range in duplicate. The average of the two replicate analyses was used for statistics. Unpaired t-tests were performed using Excel™ contrasting vehicle against each treatment group. One star indicates P<0.05. Two stars indicates P<0.01. Three stars indicates P<0.001. Four stars indicates P<0.0001. Most, but not all, statistically significant results are indicated with star(s).

IL-10 = test: Acute LPS-induced sepsis in C57BL/6 mice: IL-10 cytokine detection assay; settings: 200 mpk PO; LPS-challenged mice, plasma at 6.5 h; unpaired t-test vs vehicle
IL-12(p70) = test: Acute LPS-induced sepsis in C57BL/6 mice: IL-12(p70) cytokine detection assay; settings: LPS-challenged mice, plasma at 6.5 h, unpaired t-test vs vehicle
Text: FIG. 16 is a graph showing the results of an IL-12(p70) cytokine detection assay in samples collected from mouse subjects after administration of compounds of the present disclosure.
as §1
as §2, with “The mice were dosed by oral gavage (PO) at 10 ml/kg as per the table below.” left out
as §2, with “2B, 185” for “2A, 103”, “37” for “20”, “cage.” for “cage with 1 cage of 3 mice as extra.”, “2B” for “2A”, “(P0)” for “(PO)”
as §3, §4, §5, §6
A 32-plex cytokine panel was obtained from Eve Technologies. Each cytokine was assessed based against a 7 point curve range in duplicate. The average of the two replicate analyses was used for statistics. Unpaired t-tests were performed using Excel™ contrasting vehicle against each treatment group. One star indicates P<0.05. […]

IL-13 = test: Acute LPS-induced sepsis in C57BL/6 mice: IL-13 cytokine detection assay; settings: LPS-challenged mice, plasma at 6.5 h, unpaired t-test vs vehicle
Text: FIG. 17 is a graph showing the results of an IL-13 cytokine detection assay in samples collected from mouse subjects after administration of compounds of the present disclosure.
as §1, §2
as §2, with “2B, 185” for “2A, 103”, “37” for “20”, “cage.” for “cage with 1 cage of 3 mice as extra.”, “2B” for “2A”, “(P0)” for “(PO)”
as §3, §4, §5, §6
A 32-plex cytokine panel was obtained from Eve Technologies. Each cytokine was assessed based against a 7 point curve range in duplicate. The average of the two replicate analyses was used for statistics. […]

KC = test: Acute LPS-induced sepsis in C57BL/6 mice: KC cytokine detection assay; settings: LPS-challenged mice, plasma at 6.5 h, unpaired t-test vs vehicle
Text: FIG. 20 is a graph showing the results of a KC cytokine detection assay in samples collected from mouse subjects after administration of compounds of the present disclosure.
as §1, §2
as §2, with “2B, 185” for “2A, 103”, “37” for “20”, “cage.” for “cage with 1 cage of 3 mice as extra.”, “2B” for “2A”, “(P0)” for “(PO)”
as §3, §4, §5, §6, §7

MCP-1(CCL2) = test: Acute LPS-induced sepsis in C57BL/6 mice: MCP-1(CCL2) cytokine detection assay; settings: 200 mpk PO; LPS-challenged mice, plasma at 6.5 h; unpaired t-test vs vehicle
IL-9 = test: Acute LPS-induced sepsis in C57BL/6 mice: IL-9 cytokine detection assay; settings: 125 mpk PO; LPS-challenged mice, plasma at 6.5 h; unpaired t-test vs vehicle
Text: FIG. 13 is a graph showing the results of an IL-9 cytokine detection assay in samples collected from mouse subjects after administration of compounds of the present disclosure.
as §1
as §2, with “cellulose. […]” for “cellulose.”
(§8) A 32-plex cytokine panel was obtained from Eve Technologies. Each cytokine was assessed based against a 7 point curve range in duplicate. […]

IL-3 = test: Acute LPS-induced sepsis in C57BL/6 mice: IL-3 cytokine detection assay; settings: 75 mpk PO; LPS-challenged mice, plasma at 6.5 h; unpaired t-test vs vehicle
[1] = test system: leukemia inhibitory factor (LIF); test: Acute LPS-induced sepsis in C57BL/6 mice: leukemia inhibitory factor (LIF) cytokine detection assay; settings: 75 mpk PO; LPS-challenged mice, plasma at 6.5 h; unpaired t-test vs vehicle
Text: FIG. 21 is a graph showing the results of a leukemia inhibitory factor (LIF) cytokine detection assay in samples collected from mouse subjects after administration of compounds of the present disclosure. LIF is an interleukin 6 class cytokine that affects cell growth by inhibiting differentiation.
as §1, §2
as §2, with “2B, 185” for “2A, 103”, “37” for “20”, “cage.” for “cage with 1 cage of 3 mice as extra.”, “2B” for “2A”, “(P0)” for “(PO)”
as §3, §4, §5, §6, §8

MIP2(CXCL2) = test: Acute LPS-induced sepsis in C57BL/6 mice: MIP2(CXCL2) cytokine detection assay; settings: 75 mpk PO; LPS-challenged mice, plasma at 6.5 h; unpaired t-test vs vehicle
Text: FIG. 27 is a graph showing the results of a MIP2(CXCL2) cytokine detection assay in samples collected from mouse subjects after administration of compounds of the present disclosure.
as §1
as §2, with “The mice were dosed by oral gavage (PO) at 10 ml/kg as per the table below.” left out
as §2, with “2B, 185” for “2A, 103”, “37” for “20”, “cage.” for “cage with 1 cage of 3 mice as extra.”, “2B” for “2A”, “(P0)” for “(PO)”
as §3, §4
(§9) At T=6.5 h, all mice were anesthetized and exsanguinated into pre-chilled EDTA-treated tubes. […]
as §8

IL-6 = test: Acute LPS-induced sepsis in C57BL/6 mice: IL-6 cytokine detection assay; settings: 200 mpk PO; LPS-challenged mice, plasma at 6.5 h; unpaired t-test vs vehicle
Text: FIG. 11 is a graph showing the results of an IL-6 cytokine detection assay in samples collected from mouse subjects after administration of compounds of the present disclosure.
as §1, §2
as §2, with “2B, 185” for “2A, 103”, “37” for “20”, “cage.” for “cage with 1 cage of 3 mice as extra.”, “2B” for “2A”, “(P0)” for “(PO)”
as §3, §4, §9, §8

TNFα = test: Acute LPS-induced sepsis in C57BL/6 mice: TNFα cytokine detection assay; settings: 200 mpk PO; LPS-challenged mice, plasma at 6.5 h; unpaired t-test vs vehicle
Text: FIG. 29 is a graph showing the results of a TNFα cytokine detection assay in samples collected from mouse subjects after administration of compounds of the present disclosure.
as §1
as §2, with “cellulose. […]” for “cellulose.”
as §8

## CC(C)(O)c1ncc(C(F)(F)F)cc1N [Compound I-24, 2-(3-Amino-5-(trifluoromethyl)pyridin-2-yl) propan-2-ol]
M-CSF (CSF1); 200 mpk PO
  M-CSF: significant cytokine change vs. vehicle: * (One star indicates P<0.05)

## CC(C)(O)c1cc(Cl)c(Cl)cc1N [Compound I-28, 2-(2-Amino-4,5-dichlorophenyl) propan-2-ol]
IL-10
  IL-10: significant cytokine change vs. vehicle: * (One star indicates P<0.05)
IL-12(p70); 200 mpk PO
  IL-12 (p70): significant cytokine change vs. vehicle: * (One star indicates P<0.05)
IL-13; 200 mpk PO
  IL-13: significant cytokine change vs. vehicle: * (One star indicates P<0.05)
KC; 200 mpk PO
  KC: significant cytokine change vs. vehicle: *** (Three stars indicates P<0.001)
MCP-1(CCL2)
  MCP-1: significant cytokine change vs. vehicle: * (One star indicates P<0.05)

## CC(C)(O)c1cc2c(cc1N)OCCO2 [Compound I-26, 2-(7-Amino-2,3-dihydrobenzo[b] [1,4]dioxin-6-yl) propan-2-ol]
IL-9
  IL-9: significant cytokine change vs. vehicle: * (One star indicates P<0.05)

## CC(O)(c1ccc(C(F)(F)F)cc1N)C(F)(F)F (stereo not shown) [Compound I-33, 2-(2-Amino-4-(trifluoromethyl)phenyl)-1,1,1-trifluoropropan-2-ol]
IL-3
  IL-3: significant cytokine change vs. vehicle: ** (Two stars indicates P<0.01)
IL-12(p70); 75 mpk PO
  IL-12 (p70): significant cytokine change vs. vehicle: * (One star indicates P<0.05)
IL-13; 75 mpk PO
  IL-13: significant cytokine change vs. vehicle: ** (Two stars indicates P<0.01)
KC; 75 mpk PO
  KC: significant cytokine change vs. vehicle: ** (Two stars indicates P<0.01)
[1]
  LIF: significant cytokine change vs. vehicle: **** (Four stars indicates P<0.0001)
MIP2(CXCL2)
  MIP-2: significant cytokine change vs. vehicle: ** (Two stars indicates P<0.01)

## COc1ccc2c(c1)NC(=O)[C@@H](CO)N2 [Compound I-7, (R)-3-(Hydroxymethyl)-7-methoxy-3,4-dihydroquinoxalin-2(1H)-one]
IL-6
  IL-6: significant cytokine change vs. vehicle: * (One star indicates P<0.05)
KC; 200 mpk PO
  KC: significant cytokine change vs. vehicle: * (One star indicates P<0.05)
MCP-1(CCL2)
  MCP-1: significant cytokine change vs. vehicle: * (One star indicates P<0.05)
M-CSF (CSF1); 200 mpk PO
  M-CSF: significant cytokine change vs. vehicle: *** (Three stars indicates P<0.001)
TNFα
  TNFa: significant cytokine change vs. vehicle: * (One star indicates P<0.05)

## CC(C)(O)c1cc2occc2cc1N [Compound I-22, 2-(5-Aminobenzofuran-6-yl) propan-2-ol]
M-CSF (CSF1); 100 mpk PO
  M-CSF: significant cytokine change vs. vehicle: ** (Two stars indicates P<0.01)
